Read-outs that look alike come from different tables or passages of the source.
Key:
MPO [1] = molecular target: T1, MPO (Homo sapiens, UniProt P05164); assay: Z' parameter of the MPO/H2O2/Cl- assays; parameters: MPO from human neutrophils was obtained from Athens Research and Technology; purchased Athens Research and Technology (Athens, GA); host or cells: human neutrophils (natural source, donor material); conditions: both end-point (20 min) and kinetic (initial rates over 5 min) measurements
Protocol: The Z’ parameter is a measure of the assay quality in terms of its applicability to screen for bioactive compounds in cell-free or cell-based systems. The Z’ value of 0.5 or higher is generally accepted for the application of any assay for high throughput screening (HTS) of large chemical libraries. For the probes tested, the Z’ parameter was calculated on the basis of end-point measurements (fluorescence measured at a specific time of incubation) and kinetic measurements (rates of fluorescence increase), according to the Eq. 5. In the end-point measurements the Z’ values were calculated for the time of incubation equal to 20 min. To calculate the kinetic Z’ the initial rates of fluorescent product formation over 5 min were used. […] The lowest Z’ values around 0.7 were obtained for the NBD-TM probe. All the probes produced the Z’ values compatible with HTS applications.
The Z’ factor is a dimensionless coefficient and was calculated on the basis of data presented in Fig. 3 according to the equation below (Eq. 5)[57].5 Z^′=1-3S.D.control+-3S.D.control -/meancontrol +-meancontrol -, where S.D.control+ and S.D.control- are the standard deviation values, and meancontrol+ and meancontrol- are the mean values for the positive and negative control, respectively. The value of Z ' above 0.5 means good quality of the assay. The higher value of Z ' parameter means the better quality of the assay. This parameter cannot reach value higher than 1.

[2] = Competition kinetics of APC and APF with boronate reference for HOCl; format: physicochemical; conditions: FLBA (for APC) or CBA (for APF) 25 µM as reference, HOCl 5 µM, pH 7.4
Protocol: The rate constants of 1.8 × 10^4 M^−1s^−1 and 1.1 × 10^4 M^−1s^−1 were obtained for CBA and FLBA, respectively, which are typical values reported for this class of probes (Fig. 4a,b)[29],[36],[38],[45]. […] The highest rate constant was obtained for the NBD-TM probe which was equal to 1.0 × 10^7 M^−1s^−1. This rate constant was calculated using a second order rate constant of 1.8 × 10^4 M^−1s^−1 for the reference compound (CBA). The determined value of the rate constant for NBD-TM is consistent with the reaction rate constants reported for other thioethers with HOCl[41],[46].
(§1) Supplementary Figure S1. (a) Decrease of COH fluorescence in the incubation mixtures containing […]
(§2) in the presence of catalase (100 U/ml, black); in the absence of NaCl (green); in the absence of NaCl but in the presence of catalase (dark blue); in the absence of MPO (light blue); in th e absence of MPO but in the presence of catalase (pink). ( b), (c) same as (a) but instead of COH, incubation mixtures contained fluorescein and NBD -TSO, respectively.
Supplementary Figure S2. The relationship used to determine the rate constant between APF and HOCl (a), or […] and HOCl (b), according to the competition kinetic approach. The solid lines in the panel (a) and (b) represent the linear fittings to the equation […]
(2kFLBA+HOCl = 1,11 × 104 M-1s-1). […] The concentrations of COH and fluorescein were determined by LC/MS. […]

[3] = cited from earlier work
[4] = Effect of DMSO on HOCl-induced probe oxidation; format: physicochemical; conditions: 20 µM probe, 10 µM HOCl, pH 7.4
Excerpt: DMSO is a solvent well tolerated by cells and it is often used to dissolve organic compounds intended for cell culture studies. Most chemical libraries for HTS applications use DMSO as the solvent. However, DMSO reacts directly with HOCl with a second-order rate constant of 350 ± 40 M^−1s^−1 and it has been shown that it may interfere with oxidation of boronate probes by HOCl[49]. Thus, the influence of DMSO additive on the observed fluorescence signal generated in the reaction between HOCl and the studied probes was evaluated. In this experiment, the incubation mixtures contained the chosen probe (20 µM), phosphate buffer (50 mM, pH 7.4), and DMSO in the amounts between 0–5% v/v (0–0.7 M). The reaction with HOCl was initiated by the bolus addition of 1 mM sodium hypochlorite to obtain the final HOCl concentration of 10 µM. In the case of NBD-TM that reacts rapidly and stoichiometrically (1:1 ratio) with HOCl[44] about 10 µM of NBD-TSO was formed (Fig. 6). […] The presence of 0.5% v/v (0.07 M) or higher concentrations of DMSO was sufficient to completely scavenge HOCl and block the fluorescence increase.
Incubation mixtures contained 20 µM of a probe, 10 µM HOCl, 0–5% v/v (0–0.7 M) DMSO, and 50 mM phosphate buffer (pH 7.4). (Representative result of three independent experiments is shown. Points represent means ± S.D.)

[5] = Stability of probe stock solutions; format: physicochemical; conditions: stock in acetonitrile or water/acetonitrile (1:1 v/v), 6 °C in the dark
Protocol: In the case of FLBA and APF, the two millimolar probe solutions were prepared in the water/acetonitrile mixture (1:1 v/v).

MPO [6] = molecular target: T1, MPO; conditions: read-out: Azide anion IC50, MPO 1.2 nM, H2O2 10 µM, pH 7.4
Protocol: (§3) Mixtures contained MPO (1.2 nM), H2O2 (10 µM), NaCl (0.1 M), phosphate buffer (50 mM, pH 7.4), and the appropriate probe (20 µM). […] In the calculations the initial rates of probes oxidation were used. (Data are means ± standard deviation of three independent experiments).
MPO from human neutrophils was obtained from Athens Research and Technology (Athens, GA, According to the Certificate of Origin, the material used has been obtained from an FDA licensed collection center. Further the donors has given by signature full informed consent for the material to be used in commercial scientific research). […] Fluorescent probes were synthetized according to the procedures described in the literature. The synthesis of fluorescein pinacol boron ester (Fl-B) was performed based on the procedures published by Dickinson et al. and Rios et al.[58],[59]. The obtained boronate was then hydrolyzed to fluorescein boronic acid (FLBA). The synthesis of APF was performed based on the procedure published by Setsukinai and cooworkers. […] The detailed description of synthetic procedures can be found in the Supplementary Information. The CBA synthesis is described elsewhere[37],[61].
The lyophilized powder of MPO was dissolved in distilled water accordingly to the supplier recommendation and, if required, stored at 6 °C by the day of analysis. Such prepared solution was then diluted with phosphate buffer, pH 7.4, to the appropriate concentration and the volume of 0.5–2 µL/well depending on the activity was pipetted directly to 96-well plate (Costar 3840). […] Reactions were stared adding 100 µl/well of 20 µM hydrogen peroxide solution.

MPO [7] = molecular target: T1, MPO; conditions: read-out: recommended average IC50 value; average of CBA, FLBA and NBD-TM probes
Protocol: as §3

[8] = Stability of fluorophores in the MPO/H2O2/Cl- system; format: physicochemical; conditions: fluorophore 5 µM, MPO 1.2 nM, H2O2 10 µM, NaCl 0.1 M, pH 7.4
Protocol: To check the stability of the COH, FL, and NBD-TSO fluorescence signal under the oxidizing conditions of MPO/H2O2/Cl^–, the fluorophores were incubated under the same reaction conditions, as described above for the five probes used in the study (Supplementary Figure S1). […] Overall, the fluorophores formed from the probes used may undergo consumption in the presence of MPO, H2O2 and Cl^–, due to their reaction with HOCl and/or via peroxidatic activity of MPO in the absence of Cl^–. This is, however, expected to occur only under the condition of excess of the oxidants (H2O2 and/or HOCl), as evidenced by the stable fluorescence signals of the products observed within 1 h of incubation (Fig. 3). The experimental design for monitoring HOCl involving probes producing such fluorophores should, therefore, take into account potential consumption of the fluorescent product, when the amount of the oxidant exceeds the probe availability.
as §1, §2
Supplementary Figure S2. The relationship used to determine the rate constant between APF and HOCl (a), or […] and HOCl (b), according to the competition kinetic approach. The solid lines in the panel (a) and (b) represent the linear fittings to the equation
1 = 1 + 1 kAPC/or APF [APC/orAPF]. In the case of reaction between […]
(2kFLBA+HOCl = 1,11 × 104 M-1s-1). In the case of APF, the samples contained APF (0 – 100 µM), HOCl (5 µM), and CBA (25 µM) as a reference compound (2kCBA+HOCl = 1,80 × 104 M-1s-1). The concentrations of COH and fluorescein were determined by LC/MS. […]

T1 sequence (P05164 279-745 limits assumed): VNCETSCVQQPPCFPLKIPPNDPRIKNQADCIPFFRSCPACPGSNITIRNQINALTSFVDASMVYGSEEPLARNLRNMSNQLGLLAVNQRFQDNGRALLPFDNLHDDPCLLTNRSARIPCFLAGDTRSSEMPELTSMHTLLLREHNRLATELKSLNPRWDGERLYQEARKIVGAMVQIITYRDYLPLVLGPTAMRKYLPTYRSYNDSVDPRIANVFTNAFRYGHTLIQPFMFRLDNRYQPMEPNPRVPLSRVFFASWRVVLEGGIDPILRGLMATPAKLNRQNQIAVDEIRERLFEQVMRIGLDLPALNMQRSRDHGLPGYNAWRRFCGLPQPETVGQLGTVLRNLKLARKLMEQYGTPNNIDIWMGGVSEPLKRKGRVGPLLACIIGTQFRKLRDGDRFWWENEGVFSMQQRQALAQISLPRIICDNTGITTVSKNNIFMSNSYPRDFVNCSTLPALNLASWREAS
T1 sequence (P05164 165-273 limits assumed): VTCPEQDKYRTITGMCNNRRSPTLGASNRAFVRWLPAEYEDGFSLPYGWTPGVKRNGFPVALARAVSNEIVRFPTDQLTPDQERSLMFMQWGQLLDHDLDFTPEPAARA

With 7-(p-aminophenyl)-coumarin [APC] the “Z' value” (MPO [1]) was “around 0.9” and the “rate constant with HOCl by competition kinetics compared with stopped-flow value” [2] was “nearly identical rate constants”.

In the case of `C[S+](C)[O-]` [DMSO], the “second-order rate constant of the reaction with HOCl” value [3] is listed as 350 ± 40 M⁻¹ s⁻¹.

In the case of `O=[N+]([O-])c1ccc(N2CCSCC2)c2nonc12` [NBD-TM, 4-thiomorpholino-7-nitrobenz-2-oxa-1,3-diazole], the “Z' value” (MPO [1]) is reported as “around 0.7”, the “decrease of NBD-TSO concentration by DMSO” value (from here on “decrease”) ([4]; 0.5% (0.07 M) DMSO) is reported as “about 5%” and the “decrease” value ([4]; 1% (0.14 M) DMSO) is reported as “about 10%”. For the same compound, the “decrease” value ([4]; 5% (0.7 M) DMSO) was about 35%.

In the case of `O=c1ccc2ccc(B(O)O)cc2o1` [CBA, coumarin boronic acid], the “Z' value” (MPO [1]) is reported as “around 0.9” and the “stability of stock solution” value [5] is reported as “stable at least one-month”.

With `Nc1ccc(Oc2ccc3c(-c4ccccc4C(=O)O)c4ccc(=O)cc-4oc3c2)cc1` [APF, 3’-(p-aminophenyl)-fluorescein] the “Z' value” (MPO [1]) was “around 0.9”, the “stability of stock solution” value [5] was “stable at least one-month” and the “rate constant with HOCl by competition kinetics compared with stopped-flow value” [2] was “nearly identical rate constants”.

Compound `[N-]=[N+]=[N-]` [Azide anion, sodium azide] has an IC50 (MPO [6]; APC probe 20 µM, NaCl 0.1 M) of 1940 nM, an IC50 (MPO [6]; APF probe 20 µM, NaCl 0.1 M) of 2370 nM and an IC50 (MPO [6]; Amplex Red 20 µM, no NaCl) of 1040 nM. The IC50 (MPO [6]; Amplex Red 20 µM, no NaCl, listed as N3^–) was 1000 nM, the IC50 (MPO [6]; CBA probe 20 µM, NaCl 0.1 M) was 810 nM and the IC50 (MPO [6]; FLBA probe 20 µM, NaCl 0.1 M) was 540 nM. The IC50 (MPO [6]; NBD-TM probe 20 µM, NaCl 0.1 M) was 630 nM and the IC50 (MPO [7]) was 700 nM.

For `O=[N+]([O-])c1ccc(N2CC[S+]([O-])CC2)c2nonc12` [NBD-TSO], the “stability of the fluorescence signal” value [8] was “slowly decomposing or precipitated during the time of incubation”.

In the case of `O=C(O)c1ccccc1-c1c2ccc(=O)cc-2oc2cc(B(O)O)ccc12` [FLBA, fluorescein boronic acid], the “Z' value” (MPO [1]) is reported as “around 0.9” and the “stability of stock solution” value [5] is reported as “stable at least one-month”.

For `O=c1ccc2ccc(O)cc2o1` [COH, 7-hydroxycoumarin], the “stability of the fluorescence signal” value [8] was “decreasing with the time of incubation”.

With `O=C1OC2(c3ccc(O)cc3Oc3cc(O)ccc32)c2ccccc21` [fluorescein] the “stability of the fluorescence signal” value [8] was “a slight decrease in the fluorescence intensity”.

For `CSCC[C@H](N)C(=O)O` [L-methionine], the “reaction rate constant with HOCl (^2k)” value [3] is given as 3.4e+07 M⁻¹ s⁻¹.

From article PMC9166712, “Fluorescent probes for monitoring myeloperoxidase-derived hypochlorous acid: a comparative study” (Scientific Reports, 2022)
